Measured values taken from US7687079B2, “Methods of treating ileus” (priority 2002, dated 2010).
Entries after “also recorded” stand apart in the source; their conditions may differ.

Tests used:
iNOS mRNA = iNOS mRNA expression in muscularis of transplanted grafts (real time RT-PCR); type: in vivo, rat; details: CO-treated SITx rats, 4 hours after reperfusion; p=0.060
Procedure: The effects of inhalation of CO on transplant-induced pro-inflammatory and anti-inflammatory gene expression was assessed in muscularis extracts by RT-PCR. Muscularis extemae was collected from normal intestine and transplanted grafts 4 hours postoperatively and snap frozen in liquid nitrogen. This time point falls within the range of maximum inflammatory mediator expression that occurs between 3 and 6 hours following abdominal incision. Total RNA extraction was performed using the guanidium-thiocyanate phenol-chloroform extraction method as described previously (Eskandari et al., Am. J. Clin. Pathol. 75(3):367-370 (1997)). RNA pellets were resuspended in RNA-secure resuspension solution (Ambion Inc., Austin, Tex.), followed by removal of potentially contaminating DNA by treatment with DNase I (DNA-Free Kit, Ambion Inc., Austin, Tex.). Equal aliquots (5 μg) of total RNA from each sample were quantified by spectrophotometry (wavelength […]) and aliquoted at a concentration of 40 ng/μl. Peak mRNA expression was quantified in duplicate by SYBR Green two-step, real-time RT-PCR. […] Real-time PCR data were plotted as the ΔRn, fluorescence signal versus the cycle number. […] Quantification of mRNA expression was normalized to GAPDH and calculated relative to control using the comparative CT method (Schmittgen et al., J. Biochem. Biophys. Methods 46(1-2):69-8 (2000)). […]

[1] = system: mice subjected to surgical manipulation of the small intestine; experiment: intestinal transit of fluorescein-labeled dextran after intestinal manipulation (IM); type: in vivo, mouse
Excerpt: Surgical Manipulation. Mice were anesthetized with inhaled isoflurane and the abdomen opened by midline laparotomy. The small intestine was eventrated and gently compressed along its entire length using moistened sterile cotton applicators. This procedure is designed to simulate “running” of the bowel commonly performed during abdominal surgery in the clinical setting. The bowel was repositioned in the abdominal cavity and the incision closed by two layers of continuous sutures. The duration of the procedure was approximately 15 minutes and the animals moved freely about their cage within 20 minutes of withdrawal of anesthetic.
CO Inhalation Treatment. Mice housed in cages were placed in plexiglass chambers that were continuously ventilated with air or with air containing CO (250 ppm). […]
Mice were anesthetized and killed by exsanguination at the end of the 24-hour chamber treatment with CO or room air. In vitro circular muscle mechanical activity was measured as previously described in Eskandari et al. (Am. J. Physiol. 273:G727-G734 (1997)). […] Contractile activity was calculated by integrating the area under the trace. […] Intestinal transit was measured in controls and manipulated animals 24 hours postoperatively by evaluating the intestinal distribution of a non-absorbable fluorescein-labeled dextran (MW 70,000). […]

Compound: [C-]#[O+] [CO, carbon monoxide]
- reduction of mean relative iNOS mRNA expression (iNOS mRNA): approximately 50%
- intestinal transit (GC, distribution of labeled dextran) ([1]; IM + CO 250 ppm vs IM, 24 hours postoperatively): significantly improved; also recorded: more distal distribution; also recorded: significant increase
- intestinal transit ([1]; unoperated mice, CO 250 ppm alone): slight insignificant shift
